Measurements as given in ChEMBL document CHEMBL4354794, “Potential Anticancer Agents Characterized from Selected Tropical Plants” (J Nat Prod, 2019).

Experiments:
HT-29 [1] = experiment: Antiproliferative activity against human HT-29 cells assessed as reduction in cell viability; assay type: functional, cell-based
A549 = experiment: Antiproliferative activity against human A549 cells assessed as reduction in cell viability after 48 hrs by MTT assay; assay type: functional, cell-based; conditions: A549, 48 h
BGC-823 = experiment: Antiproliferative activity against human BGC823 cells assessed as reduction in cell viability after 48 hrs by MTT assay; assay type: functional, cell-based; conditions: BGC-823, 48 h
HT-29 [2] = experiment: Antiproliferative activity against human HT-29 cells assessed as reduction in cell viability after 3 days by SRB assay; assay type: functional, cell-based; conditions: HT-29, 72 h
P388 = experiment: Antiproliferative activity against mouse P388 cells assessed as reduction in cell viability; assay type: functional, cell-based
[3] = Antiproliferative activity against human KKU100 cells assessed as reduction in cell viability after 72 hrs by SRB assay; assay type: functional, cell-based; conditions: KKU100, 72 h
SNB-19 = experiment: Antiproliferative activity against human SNB19 cells; assay type: functional, cell-based
HepG2 = experiment: Antiproliferative activity against human HepG2 assessed as reduction in cell viability incubated for 48 hrs by AlamarBlue assay; assay type: functional, cell-based; conditions: HepG2, 48 h
MCF7 = experiment: Antiproliferative activity against human MCF7 assessed as reduction in cell viability incubated for 48 hrs by AlamarBlue assay; assay type: functional, cell-based; conditions: MCF7, 48 h
Trypsin = Trypsin (Homo sapiens, UniProt P07477+P07478+P35030); experiment: Inhibition of trypsin (unknown origin) using Z-FR-MCA as substrate by spectrofluorimetric method; assay type: protein assay
Cruzipain = Cruzipain (Trypanosoma cruzi, UniProt P25779); experiment: Inhibition of Trypanosoma cruzi cruzain (unknown origin) using Z-FR-MCA as substrate by spectrofluorimetric method
Papain = target: T1, Papain (Carica papaya, UniProt P00784); experiment: Inhibition of Papaya papain using Z-FR-MCA as substrate by spectrofluorimetric method
T1 sequence (P00784 whole entry): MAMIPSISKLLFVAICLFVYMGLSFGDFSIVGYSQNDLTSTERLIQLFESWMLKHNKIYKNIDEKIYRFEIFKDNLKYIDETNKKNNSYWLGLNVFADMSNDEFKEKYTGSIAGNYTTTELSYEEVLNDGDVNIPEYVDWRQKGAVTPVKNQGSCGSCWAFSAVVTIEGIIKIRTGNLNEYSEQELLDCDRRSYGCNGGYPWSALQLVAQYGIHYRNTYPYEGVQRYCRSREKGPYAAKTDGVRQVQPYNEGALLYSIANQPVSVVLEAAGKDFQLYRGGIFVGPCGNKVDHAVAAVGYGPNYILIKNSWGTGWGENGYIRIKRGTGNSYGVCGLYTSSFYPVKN

NCI-H1650 = experiment: Antiproliferative activity against human NCI-H1650 cells assessed as reduction in cell viability after 72 hrs by CellTiter-Glo assay; assay type: functional, cell-based; conditions: NCI-H1650, 72 h
HL-60 = experiment: Antiproliferative activity against human HL60 cells assessed as reduction in cell viability after 3 days by trypan blue dye based hemocytometer counting method; assay type: functional; conditions: HL-60, 72 h

Cruzipain, sequence (P25779 whole entry): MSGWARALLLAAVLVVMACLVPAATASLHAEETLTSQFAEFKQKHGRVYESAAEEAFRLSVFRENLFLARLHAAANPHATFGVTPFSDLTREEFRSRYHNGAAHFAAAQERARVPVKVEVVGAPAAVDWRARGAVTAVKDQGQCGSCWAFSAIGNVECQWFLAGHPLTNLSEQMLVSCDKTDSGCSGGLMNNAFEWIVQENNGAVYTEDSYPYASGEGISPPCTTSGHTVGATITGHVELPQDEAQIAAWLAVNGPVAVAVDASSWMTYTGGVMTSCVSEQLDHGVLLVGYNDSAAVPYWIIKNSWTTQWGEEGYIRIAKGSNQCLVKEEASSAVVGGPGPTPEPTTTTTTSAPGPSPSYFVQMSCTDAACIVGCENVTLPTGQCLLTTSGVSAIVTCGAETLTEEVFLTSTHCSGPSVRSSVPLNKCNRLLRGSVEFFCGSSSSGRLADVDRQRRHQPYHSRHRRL

C=C1C(=O)O[C@@H]2C[C@@H](C)[C@H](OC)CC(=O)[C@](C)(OC(C)=O)C[C@H](OC(=O)/C(C)=C\C)[C@@H]12
IC50 (HT-29 [1]): 1400 nM

CC(C)=CCC12OC(C)(C)C3CC(C=C4C(=O)c5c(O)cc(O)cc5OC431)C2=O (configuration not stated)
IC50 (A549): 4100 nM | IC50 (BGC-823): 5900 nM

CCCCCCCCCCCCCCCC(=O)OC[C@H]1O[C@@H](O[C@H]2CC[C@@]3(C)C(=CC[C@H]4[C@@H]5CC[C@H]([C@H](C)CC[C@@H](CC)C(C)C)[C@@]5(C)CC[C@@H]43)C2)[C@H](O)[C@@H](O)[C@@H]1O
IC50 (HT-29 [2]): > 10000 nM

CC(C)=CCc1c2c(c(O)c3c1O[C@]14C(=C[C@H]5C[C@@H]1C(C)(C)O[C@@]4(C/C=C(/C)C(=O)O)C5=O)C3=O)CC(O)C(C)(C)O2 (single isomer, unassigned; (-))
IC50 (HT-29 [2]): 2900 nM

C=C1C(=O)O[C@@H]2C[C@@H](C)C3=CC(=O)[C@@](C)(C[C@H](OC(=O)/C(C)=C\C)[C@@H]12)O3
IC50 (HT-29 [1]): 560 nM

C=C1C(=O)O[C@@H]2[C@@H](O)[C@@H](C)C3=CC(=O)[C@@](C)(C[C@H](OC(=O)/C(C)=C\C)[C@@H]12)O3
IC50 (HT-29 [1]): 6600 nM

CC(C)=CCc1c(-c2cc(O)c(O)cc2O)oc2c3c(cc(O)c2c1=O)OC(C)(C)C=C3 [ARTONIN E]
IC50 (P388): 140 nM

COCOc1cc(O)c2c(c1)OC13C(=CC4CC1C(C)(C)OC3(C[C@H](O)C(C)(C)O)C4=O)C2=O (some centres not stated)
IC50 (A549): 1700 nM | IC50 (BGC-823): 860 nM

CC(C)=CCc1c(O)cc(O)c2c1O[C@]13C(=C[C@H]4C[C@@H]1C(C)(C)O[C@@]3(CC=C(C)C)C4=O)C2=O
IC50 [3]: 3500 nM

CC(C)=CCc1c(O)c(CC=C(C)C)c2c(c1O)C(=O)C1=C[C@H]3C[C@@H]4C(C)(C)O[C@@](C/C=C(/C)C(=O)O)(C3=O)[C@@]14O2
IC50 (HT-29 [2]): 3200 nM

C=C(C)C(O)Cc1c2c(c(O)c3c1O[C@]14C(=C[C@H]5C[C@@H]1C(C)(C)O[C@@]4(C/C=C(\C)C(=O)O)C5=O)C3=O)C=CC(C)(C)O2 (some centres not stated)
IC50 (HT-29 [2]): 2600 nM

C=C1C(=O)O[C@@H]2/C=C(/C)C3=CC(=O)[C@@](C)(C[C@H](OC(=O)C(C)C)[C@@H]12)O3
IC50 (HT-29 [1]): 580 nM

C=C(C)[C@@]1(O)O[C@H]2C[C@@]3(C)OC(=CC3=O)/C(C)=C\[C@H]3OC(=O)[C@@]1(C)[C@@H]23
IC50 (HT-29 [1]): > 10000 nM | IC50 (SNB-19): 100000 nM

C=C1C(=O)O[C@@H]2C3O[C@]3(C)CC/C=C(\C)CC[C@@H]12 (some centres not stated)
IC50 (HepG2): > 10000 nM

COCOc1cc(O)c2c(c1)OC13C(=CC4CC1C(C)(C)OC3(CC=C(C)C)C4=O)C2=O (configuration not stated)
IC50 (A549): 3300 nM | IC50 (BGC-823): 3200 nM

C=C1C(=O)O[C@@H]2/C=C(/C)C3=CC(=O)[C@@](C)(C[C@H](OC(=O)/C(C)=C\C)[C@@H]12)O3
IC50 (HT-29 [1]): 1400 nM | IC50 (SNB-19): 13800 nM

CO[C@H]1[C@H]2C(=O)c3c(O)c4c(c(CC=C(C)C)c3O[C@@]23[C@@H]2C[C@H]1C(=O)[C@]3(C/C=C(/C)C(=O)O)OC2(C)C)OC(C)(C)C=C4
IC50 (HT-29 [2]): 1900 nM

C/C1=C\CC[C@@]2(C)O[C@H]2[C@H]2OC(=O)[C@@H](CNC(Cc3ccc(N(CCCl)CCCl)cc3)C(=O)O)[C@@H]2CC1 (some centres not stated)
IC50 (HepG2): 260 nM | IC50 (MCF7): 1800 nM

CC(=O)Oc1ccc(C2Oc3cc(OC(C)=O)cc(O)c3C(=O)C2c2c(OC(C)=O)cc(O)c3c(=O)cc(-c4ccc(OC(C)=O)c(OC(C)=O)c4)oc23)cc1 (racemic)
IC50 (Trypsin): 21100 nM | IC50 (Cruzipain): 537000 nM | IC50 (Papain): 600 nM

COCOc1cc(O)c2c(c1)OC13C(=CC4CC1C(C)(C)OC3(CC1OC1(C)C)C4=O)C2=O (configuration not stated)
IC50 (A549): 2700 nM | IC50 (BGC-823): 310 nM

COc1ccc(C2Oc3cc(OC)cc(O)c3C(=O)C2c2c(OC)cc(O)c3c(=O)cc(-c4ccc(OC)c(OC)c4)oc23)cc1 (racemic)
IC50 (Trypsin): 1600 nM | IC50 (Cruzipain): 235000 nM | IC50 (Papain): 15400 nM

C=C(C)C(=O)O[C@H]1C[C@@]2(C)OC(=CC2=O)C(=C)[C@H](O)[C@H]2OC(=O)C(=C)[C@@H]21
IC50 (HT-29 [1]): 280 nM

CC(C)=CCc1c2c(c(O)c3c1O[C@]14C(=C[C@H]5C[C@@H]1C(C)(C)O[C@@]4(C/C=C(\C)C=O)C5=O)C3=O)C=CC(C)(C)O2
IC50 [3]: 3300 nM

C=C(C)C(=O)O[C@H]1C[C@@]2(C)OC(=CC2=O)[C@H](C)[C@H](O)[C@H]2OC(=O)C(=C)[C@@H]21
IC50 (HT-29 [1]): 1900 nM

COCOc1cc(O)c2c(c1)OC13C(=CC4CC1C(C)(C)OC3(C/C=C(\C)CO)C4=O)C2=O (configuration not stated)
IC50 (A549): 2500 nM | IC50 (BGC-823): 3800 nM

COc1cc2c(O[C@@H]3OC[C@H](O)[C@H](O)[C@H]3OC)c3c(c(-c4ccc5c(c4)OCO5)c2cc1OC)C(=O)OC3
IC50 (HT-29 [2]): 19 nM

C=C(C)C(=O)O[C@H]1C[C@@]2(C)OC(=CC2=O)[C@H](C)C(CC(=C)C(=O)O[C@H]2C[C@@]3(C)OC(=CC3=O)/C(C)=C\[C@H]3OC(=O)C(=C)[C@H]23)[C@H]2OC(=O)C(=C)[C@H]12 (some centres not stated)
IC50 (HT-29 [1]): 150 nM

COCOc1cc(O)c2c(c1)OC13C(=CC4CC1C(C)(C)OC3(C/C=C(\C)C=O)C4=O)C2=O (configuration not stated)
IC50 (A549): 1000 nM | IC50 (BGC-823): 5000 nM

CC(C)=CCC/C(C)=C/Cc1c(O)c(CC=C(C)C)c2c(c1O)C(=O)C1=C[C@@H]3C[C@H]4C(C)(C)O[C@@](C/C=C(\C)C=O)(C3=O)[C@@]14O2
IC50 (NCI-H1650): 970 nM

COCOc1cc2c(c(O)c1Br)C(=O)C1=CC3CC4C(C)(C)OC(C/C=C(\C)CO)(C3=O)C14O2 (configuration not stated)
IC50 (A549): 560 nM | IC50 (BGC-823): 2200 nM

C=C1C(=O)O[C@@H]2C[C@@H](C)[C@H](OC)CC(=O)[C@](C)(O)C[C@H](OC(=O)/C(C)=C\C)[C@@H]12
IC50 (HT-29 [1]): 1000 nM

CC(C)=CCC[C@@]1(C)C=Cc2c(O)c3c(c(C/C=C(\C)CO)c2O1)O[C@]12C(=C[C@H]4C[C@@H]1C(C)(C)O[C@@]2(C/C=C(/C)C(=O)O)C4=O)C3=O
IC50 (NCI-H1650): 620 nM

C=C1C(=O)O[C@@H]2C/C(C)=C\CC(=O)[C@](C)(OC(C)=O)C[C@H](OC(=O)/C(C)=C\C)[C@@H]12
IC50 (HT-29 [1]): 4000 nM

CC(C)=CCC/C(C)=C/Cc1c(O)c(CC=C(C)C)c2c(c1O)C(=O)C1=C[C@@H]3C[C@H]4C(C)(C)O[C@@](CC=C(C)C)(C3=O)[C@@]14O2
IC50 (NCI-H1650): 1100 nM

CO[C@@H]1[C@@H]2C[C@H]3C(C)(C)O[C@@](C/C=C(/C)C(=O)O)(C2=O)[C@]32Oc3c(CC=C(C)C)c4c(c(O)c3C(=O)[C@H]12)C=C[C@@](C)(CCC=C(C)C)O4
IC50 (HL-60): 830 nM

COCOc1cc(O)c2c(c1)OC13C(=CC4CC1C(C)(C)OC3(C/C=C(\C)CBr)C4=O)C2=O (configuration not stated)
IC50 (A549): 960 nM | IC50 (BGC-823): 1600 nM

O=C1c2c(O)cc(O)cc2OC(c2ccc(O)cc2)C1c1c(O)cc(O)c2c(=O)cc(-c3ccc(O)c(O)c3)oc12 (racemic)
IC50 (Trypsin): 3800 nM | IC50 (Cruzipain): 9600 nM | IC50 (Papain): 10500 nM

CC(C)=CCC[C@@]1(C)C=Cc2c(O)c3c(c(CCC(C)(C)O)c2O1)O[C@]12C(=C[C@H]4C[C@@H]1C(C)(C)O[C@@]2(C/C=C(/C)C(=O)O)C4=O)C3=O
IC50 (NCI-H1650): 950 nM

CC(C)=CCc1c2c(c(O)c3c1O[C@]14C(=C[C@H]5C[C@@H]1C(C)(C)O[C@@]4(C/C=C(/C)C(=O)O)C5=O)C3=O)C=CC(C)(C)O2
IC50 (HT-29 [2]): 360 nM

CC(C)=CCC/C(C)=C/Cc1c(O)c(CC=C(C)C)c2c(c1O)C(=O)C1=C[C@@H]3C[C@H]4C(C)(C)O[C@@](C/C=C(\C)C(=O)O)(C3=O)[C@@]14O2
IC50 (NCI-H1650): 1400 nM

C/C1=C\CC[C@@]2(C)O[C@H]2[C@H]2OC(=O)[C@@H](CNc3ccn(C4OC(CO)[C@H](O)[C@@H]4O)c(=O)n3)[C@@H]2CC1 (some centres not stated)
IC50 (HepG2): 240 nM | IC50 (MCF7): 5200 nM

CCCC(=O)Oc1ccc(C2Oc3cc(OC(=O)CCC)cc(O)c3C(=O)C2c2c(OC(=O)CCC)cc(O)c3c(=O)cc(-c4ccc(OC(=O)CCC)c(OC(=O)CCC)c4)oc23)cc1 (racemic)
IC50 (Trypsin): 19800 nM | IC50 (Cruzipain): 8100 nM | IC50 (Papain): 15700 nM
